Source: ChEMBL document CHEMBL5726842, “Bicyclic azaheterocyclobenzylamines as PI3K inhibitors” (2019)

Target: T1, Phosphatidylinositol 4,5-bisphosphate 3-kinase catalytic subunit delta isoform (Homo sapiens, UniProt O00329)
T1 sequence (O00329 whole entry): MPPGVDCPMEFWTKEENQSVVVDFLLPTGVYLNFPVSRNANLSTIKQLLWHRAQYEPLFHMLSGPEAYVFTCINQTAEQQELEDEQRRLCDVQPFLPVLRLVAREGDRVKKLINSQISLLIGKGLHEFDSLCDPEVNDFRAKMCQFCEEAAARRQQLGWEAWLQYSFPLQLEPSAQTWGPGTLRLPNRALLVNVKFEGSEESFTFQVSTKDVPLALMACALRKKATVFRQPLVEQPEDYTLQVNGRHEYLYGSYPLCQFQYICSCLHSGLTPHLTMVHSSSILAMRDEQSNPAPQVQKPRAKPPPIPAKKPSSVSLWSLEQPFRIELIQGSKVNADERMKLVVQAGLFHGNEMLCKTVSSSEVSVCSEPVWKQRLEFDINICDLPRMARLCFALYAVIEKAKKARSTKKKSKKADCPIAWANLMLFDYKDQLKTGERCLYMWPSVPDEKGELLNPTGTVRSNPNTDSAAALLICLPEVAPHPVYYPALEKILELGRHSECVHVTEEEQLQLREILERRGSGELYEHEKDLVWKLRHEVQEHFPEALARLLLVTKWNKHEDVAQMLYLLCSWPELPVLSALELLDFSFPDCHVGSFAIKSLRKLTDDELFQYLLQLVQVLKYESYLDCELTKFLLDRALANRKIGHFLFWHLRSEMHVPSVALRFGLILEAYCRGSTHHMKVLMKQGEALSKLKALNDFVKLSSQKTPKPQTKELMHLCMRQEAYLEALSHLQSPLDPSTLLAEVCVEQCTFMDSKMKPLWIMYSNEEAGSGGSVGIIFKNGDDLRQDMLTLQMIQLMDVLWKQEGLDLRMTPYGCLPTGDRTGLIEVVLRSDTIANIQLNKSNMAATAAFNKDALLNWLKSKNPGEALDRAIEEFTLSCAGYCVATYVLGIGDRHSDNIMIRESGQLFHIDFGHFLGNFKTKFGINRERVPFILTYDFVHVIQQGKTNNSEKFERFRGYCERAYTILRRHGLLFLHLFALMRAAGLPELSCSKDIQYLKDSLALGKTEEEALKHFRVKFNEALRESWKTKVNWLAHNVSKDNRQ
Experiment: PI3Kdelta Scintillation Proximity Assay: [γ-33P]ATP (10mCi/mL) was purchased from Perkin-Elmer (Waltham, Mass.). Lipid kinase substrate, D-myo-Phosphatidylinositol 4,5-bisphosphate (PtdIns(4,5)P2)D (+)-sn-1,2-di-O-octanoylglyceryl, 3-O-phospho linked (PIP2), CAS 204858-53-7, was purchased from Echelon Biosciences (Salt Lake City, Utah). PI3Kδ (p110δ/p85α) was purchased from Millipore (Bedford, Mass.). ATP, MgCl2, DTT, EDTA, MOPS and CHAPS were purchased from Sigma-Aldrich (St. Louis, Mo.). Wheat Germ Agglutinin (WGA) YSi SPA Scintillation Beads was purchased from GE healthcare life sciences (Piscataway, N.J.).The kinase reaction was conducted in polystyrene 384-well matrix white plate from Thermo Fisher Scientific in a final volume of 25 μL. Inhibitors were first diluted serially in DMSO and added to the plate wells before the addition of other reaction components. The final concentration of DMSO in the assay was 0.5%. The PI3K assays were carried out at room temperature in 20 mM MOPS, pH 6.7, 10 mM MgCl2, 5 mM DTT and CHAPS 0.03%.Reactions were initiated by the addition of ATP, the final reaction mixture consisted of 20 μM PIP2, 20 μM ATP, 0.2 μCi [γ-33P] ATP, 4 nM PI3Kδ. Reactions were incubated for 210 min and terminated by the addition of 40 μL SPA beads suspended in quench buffer: 150 mM potassium phosphate pH 8.0, 20% glycerol. 25 mM EDTA, 400 μM ATP. […]

IC50: < 100 nM
Compound: Cc1nn(C(C)c2cc(Cl)c(F)c3c2O[C@H](C)CN(C2CC(C(=O)O)C2)C3)c2ncnc(N)c12 (stereo partly specified)
